Experimental data from patent publication US9150528B2, “Compound having detrusor muscle-contracting activity and urethral sphincter muscle-relaxing activity” (ONO PHARMACEUTICAL CO., LTD., priority 2009, dated 2015).
Values belong to the compound of their own block, whether it stands above or below them.

Legend:
normal rats = assay: Blood pressures and heart rates in normal rats; assay type: in vivo, rat; conditions: oral; for effect on the blood pressure / increase in heart rate: 0.3 mg/kg
Description: The blood pressures and heart rates of female Wistar rats were measured in accordance with the following procedure. On the day of measurement, indwelling of catheters for blood pressure•heart rate measurement was carried out under anesthesia with ether. The back of the neck of each rat was incised; a feeding catheter (Atom Medical Corporation) filled with heparinized physiological saline was introduced from the back of the neck; the catheter was inserted into the common carotid artery; and the surgical incision was closed. The measurements were carried out in a Bollmann cage under the conscious state, and the evaluations were carried out after confirming that the individual parameters were stabilized. After confirming the stabilization of blood pressure and heart rate, the test compound which was prepared using injectable water containing equimolar NaOH was orally administered at a dose of 5 mL/kg.
The catheter drawn from the back of the neck was connected to a pressure transducer (DX-200, NIHON KOHDEN CORP.), and the blood pressures and heart rates were measured using an amplifier for pressure measurement (Gould Instrument). The blood pressures and heart rates were recorded using a recorder (LINEARCORDERWR3320, GRAPHTEC). For each individual, rates of increase and decrease in average blood pressure and heart rate before administration and 30, 60, 120, and 180 min after administration were calculated with respect to the values of each individual before administration. Changes in blood pressure and heart rate before and after administration of the test compound were evaluated.

male rats = assay: Digestive symptoms after repeated oral administration; assay type: in vivo, rat; conditions: 0.1 mg/kg oral, repeated for 4 days
Description: Using male rats, aged 6 weeks, general states of the rats were observed after repeating oral administration of the test compound at a dose of 0.1 mg/kg for 4 days. To a control, injectable water which is a medium was administered.

[1] = system: underactive bladder models; assay: Residual urinary volumes and bladder capacities in underactive bladder models (cystometry); assay type: in vivo, rat; conditions: 0.01 mg/kg, oral, underactive bladder model rats, versus normal group
Description: The underactive bladder models were constructed in accordance with the following procedure. Female Wistar rats (8 to 9 weeks age) were anesthetized by intraperitoneal administration of Somnopentyl (40 mg/kg), followed by dorsal shaving, and fixed in abdominal positions. Each of the dorsal areas was disinfected with chlorhexidine gluconate (5% hibitane liquid). The waist area was median-incised to expose the spinal column. After excision of the fifth lumbar spinous process, a silicone rubber was inserted into the sixth lumbar direction from a hole bored by a mini drill. For the purpose of avoiding infections, after completion of the surgical operation, benzylpenicillin potassium (25000 U/0.25 mL/body) was added dropwise to the incised area. The muscle and skin of the incised area were sutured with silk threads, and iodine tincture was applied to the sutured area. After the operation, maintenance of voiding was carried out by manual compressions three times daily. For the purpose of avoiding infections, potassium penicillin G (1.25 units/body) was administered subcutaneously. More than 5 days prior to cystometric evaluation, a catheter for cystometrogram was indwelled in the bladder. Anesthesia with sodium pentobarbital (40 mg/kg by intraperitoneal administration) and incision along the midline of the abdomen were carried out, followed by incision of the apex of the bladder. A catheter for cystometrogram filled with physiological saline was inserted into the bladder from a hole of the apical area, and fixed by ligation using silk suture threads. […]
The rats were anesthetized with ether and housed in a Bollmann cage 2 weeks after the construction of the models. To the front end of each of the bladder catheters, a pressure transducer via a three-way cock was connected, and the intravesical pressure was recorded using a strain pressure amplifier•recorder. […]
[…] After 1 hr, physiological saline was perfused into the bladder at a flow rate of 2 mL/h and voiding parameters (bladder capacity and residual urinary volume) were measured. […] Voiding parameters were calculated for each cystometry. […]

[2] = Parallel artificial membrane permeability assay (PAMPA); assay type: in vitro ADME; conditions: sum of pH 5.0, 6.2 and 7.4, 25° C., read-out: membrane permeability coefficients (PAMPA(SUM))
Description: The permeability of the drugs through artificial membranes was measured by parallel artificial membrane permeability assay (PAMPA) under the following conditions. For the measurements, a PAMPA system (pION) was used. The membrane permeability was evaluated by measuring membrane permeability coefficients at three pH values and summing the values (PAMPA(SUM)(cm/sec)).
Lipid membrane: GIT-0 (pION)
Incubation temperature: 25° C.
Donor: 5% DMSO-containing buffer
Compound concentration: 50 μmol/L

[3] = system: urinary excretion dysfunction models; assay: Urinary excretion dysfunction models, maximal urinary flow rate; assay type: in vivo; conditions: 60 ng/kg/h continuous intravenous, cynomolgus monkey urinary excretion dysfunction model
Description: Urinary excretion dysfunction models were constructed in accordance with the following procedure. After anesthesia of cynomolgus monkeys, the region from the suprapubic area to the abdominal area was shaved, followed by fixing in a dorsal position. The shaved region was disinfected and the four legs were fixed. Using an electrosurgical knife, the skin region from the suprapubic area to the umbilical area and the peritoneal membrane were sequentially incised, followed by damage to the pelvic nerve and removal of the uterus. After the surgical operation, viccillin-containing physiological saline was added dropwise to the incised area. The peritoneal membrane and skin of the incised area were sutured with silk threads and disinfected. Viccillin was administered for 7 consecutive days after surgery. Meloxicam was administered once daily for 7 consecutive days to manage pain in the perioperative period.
The cynomolgus monkeys were seated on monkey chairs, followed by retention of the hands and legs with strings. Injectable water was administered orally, and physiological saline and the test compound (60 ng/kg/h) were continuously administered intravenously to allow urination freely. The maximal urinary flow rate was measured using a urine weighing sensor.

[4] = system: human lyophilized liver cells; assay: Stability evaluation in lyophilized liver cells; assay type: in vitro ADME; conditions: 37° C.
Description: KHEM5100 medium which includes human lyophilized liver cells after dissolving (final concentration of living cells: 1×10^6 cells/mL) and the test compound (acetonitrile or methanol solution, final concentration≦1%) was incubated at 37° C. Immediately after reaction and with the passage of reaction time, some portions were sampled from the medium. The concentrations of the test compound in the samples were measured by LC/MS/MS. The residual rate of the test compound relative to immediately after reaction was calculated by the following equation: Residual rate=the concentration of the test compound in the sample after reaction/the concentration of the test compound in the sample immediately after reaction×100(%) The residual rates were plotted on a single logarithmic scale against reaction time to calculate loss rate constants. The test was repeated (n=2), and the obtained values were averaged.

[5] = system: spontaneously hypertensive rats; assay: Blood pressure and heart rate measurement in hypertensive rats; assay type: in vivo, rat; conditions: continuous intravenous
Description: The blood pressures and heart rates of male spontaneously hypertensive rats were measured. On the day of measurement, indwelling of catheters for blood pressure•heart rate measurement and subject substance administration was carried out under anesthesia with ether. The back of the neck of each rat was incised, a feeding catheter (Atom Medical Corporation) filled with heparinized physiological saline was introduced from the back of the neck; the catheter was inserted into the common carotid artery and internal jugular vein; and the surgical incision was closed. The measurements were conducted in a Bollmann cage under the conscious state and evaluations were carried out after confirming that the individual parameters were stabilized. After confirming the stabilization of blood pressure and heart rate, the test compound was continuously administered intravenously at a flow rate of 5 mL/kg/h for 30 min.
The catheter drawn from the back of the neck was connected to a pressure transducer (DX-200, NIHON KOHDEN CORP.), and the blood pressures and heart rates were measured using a blood pressure amplifier (Gould instrument). The blood pressures and heart rates were recorded on recording paper using a recorder (LINEARCORDER WR3320, GRAPHTEC). The blood pressures and heart rates were converted into values on the recording paper before administration and 2.5, 5, 10, 15, 30, 45 and 60 min after administration. For each individual, rates of increase and decrease in the parameters were evaluated relative to the value before administration (value at 0 min).

cynomolgus monkeys = assay: Effects on cardiac function in anesthetized cynomolgus monkeys; assay type: in vivo, cynomolgus monkey; conditions: continuous intravenous 30 min
Description: Cynomolgus monkeys were anesthetized with pentobarbital (at an initial dose of 20-30 mg/kg by intravenous administration; at a dose of 4-5 mg/kg/hr by intravenous continuous administration). A tracheal tube was inserted and experiments were carried out under artificial respiration (fresh air+pure oxygen, ventilatory volume: 10-15 mL/kg, ventilation frequency: 10-15 times/min). In the right lying position, the left thorax was opened between the fourth and fifth intercostal spaces. The […] (the origin of the left anterior descending artery or circumflex branch) and the origin of the ascending main artery were peeled off and transducers for blood flow measurement were located there. The blood flow rates were measured using an electronic blood flowmeter or an ultrasonic blood flowmeter. The blood pressures were measured using a pressure transducer in a state where a catheter was inserted into the right femoral artery. The left ventricular internal pressure was measured in a state where a catheter was inserted from the left carotid artery into the left ventricle. The electrocardiogram was measured using needle electrodes installed in the right armpit and the left thorax. After catheters for administration were inserted into the right and left cephalic veins and femoral veins, the test compound, pentobarbital (under anesthesia) or an aqueous solution (SOLITA T3 containing 1.2% NaHCO3) were administered therethrough. The test compound was continuously administered intravenously 30 min using a continuous infusion system. The blood pressure, left ventricular internal pressure, blood flow rate through the coronary artery and electrocardiogram data were simultaneously inputted to a PowerLab system (LabChart6, AD instruments) to measure/calculate average blood pressure, heart rate, average blood flow rate through the coronary artery, beat volume, stroke volume (beat volume/heart rate), maximum first deviation of the left ventricular internal pressure, total peripheral blood vessel resistance (average blood pressure/beat volume), cardiac performance (average blood pressure x beat volume) and double product (systolic arterial pressure x heart rate), which is indicative of myocardial oxygen consumption.
The averages of all evaluation parameters for 1 min were obtained before administration, immediately after administration, and 10 min, 20 min and 30 min after administration, and changes of the averages relative to the value measured before administration which is defined as 100% were calculated.

digestive symptoms such as soft feces (male rats): soft feces were observed
Compound: C[C@@](O)(C/C=C/[C@H]1CCC(=O)[C@@H]1CCSc1nc(C(=O)O)cs1)CCCC(F)(F)F [Comparative compound C, 2-[(2-{(1R,5R)-2-oxo-5-[(1E,4S)-8,8,8-trifluoro-4-hydroxy-4-methyl-1-octenyl]cyclopentyl}ethyl)thio]-1,3-thiazole-4-carboxylic acid]
effect on the blood pressure (normal rats): tendency to decrease | increase in heart rate (normal rats): about 20%

bladder capacity [1]: significant decrease
Compound: C=C(C)CC[C@](C)(O)C/C=C/[C@H]1CCC(=O)[C@@H]1CCSc1nc(C(=O)O)cs1 [Comparative compound A, 2-[(2-{(1R,2R)-2-[(1E,4S)-4-hydroxy-4,7-dimethyl-1,7-octadien-1-yl]-5-oxocyclopentyl}ethyl)thio]-1,3-thiazole-4-carboxylic acid]
effect on the blood pressure (normal rats): tendency to increase | increase in blood pressure (normal rats; 1 mg/kg): about 10%

Papp at 4 hr, 50 μmol/L [2]: 0.6 ×10⁻⁶ cm/s
Compound: C[C@@](O)(C/C=C/[C@H]1COC(=O)N1CCSc1nc(C(=O)O)cs1)CCCC(F)(F)F [Comparative compound E, 2-[(2-{(4S)-2-oxo-4-[(1E,4S)-8,8,8-trifluoro-4-hydroxy-4-methyl-1-octenyl]-1,3-oxazolidin-3-yl}ethyl)sulfanyl]-1,3-thiazole-4-carboxylic acid, reference compound]

Residual rate ([4]; Reaction time 0 h): 100% | Residual rate ([4]; Reaction time 0.5 h): 91.5% | Residual rate ([4]; Reaction time 1 h): 78.1% | Residual rate ([4]; Reaction time 1 h, listed as comparative compound B): ≤ 80% | Residual rate ([4]; Reaction time 2 h): 62.3% | Residual rate ([4]; Reaction time 2 h, listed as comparative compound B): about 60% | effect on the cardiac functions (cynomolgus monkeys): inhibitory effect
Compound: CCCCC[C@](C)(O)C/C=C/[C@H]1CCC(=O)[C@@H]1CCSc1nc(C(=O)O)cs1 [Comparative compound B, 2-[(2-{(1R,2R)-2-[(1E,4S)-4-hydroxy-4-methyl-1-nonen-1-yl]-5-oxocyclopentyl}ethyl)thio]-1,3-thiazole-4-carboxylic acid, reference compound]
improvement in maximal urinary flow rate over the vehicle group [3]: 27% | effect on the blood pressure (normal rats): tendency to decrease | increase in heart rate (normal rats): about 20% | reduction of blood pressure ([5]; 100 ng/kg/min): about 10% | reduction of blood pressure ([5]; 300 ng/kg/min): about 25%
